Data on 22 compounds can be found in patent US12264156B2, “Compounds and pharmaceutical compositions thereof for the treatment of diseases” (GALAPAGOS NV, priority 2018, dated 2025).

What all share (type): biochemical
Common to all, as to settings: ADP-Glo SIK kinase assay

The target of one assay is T1, SIK2 (Homo sapiens, UniProt Q9H0K1).
T1 construct: purchased ThermoFisher Scientific PV4792
The assay can be described thus: ADP-Glo kinase assay, SIK2. The gist of the method:
(§1)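 ADP-Glo luminescent assay of ADP formed by SIK2 or SIK3 with substrate after ATP addition, 120 min at RT. Remaining ATP depleted 40 min, then ADP converted to ATP and read by luciferase luminescence after 30 min. Controls: 1% DMSO and 10 μM staurosporine (final).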
For orientation: ADP-Glo turns the ADP formed in a reaction into a luminescent signal.

In another assay the target is T2, SIK3 (Homo sapiens, UniProt Q9Y2K2).
T2 construct: purchased SignalChem S12-11G-100
The assay can be described thus: ADP-Glo kinase assay, SIK3. The gist of the method:
as §1

For the next assay, the target named is T3, SIK1 (Homo sapiens, UniProt P57059).
T3 construct: purchased Carna Biosciences 02-131
The assay can be described thus: ADP-Glo kinase assay, SIK1. In outline:
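Enzyme–substrate mix was started with ATP and incubated 120 min at RT. ADP formed was quantified by ADP-Glo: 40 min ATP depletion, then 30 min detection reagent converting ADP to ATP for luciferase luminescence, which rises with kinase activity. Controls: 1% DMSO and 10 μM staurosporine (final).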

Some results are limits rather than exact numbers.

T3 sequence (P57059 whole entry): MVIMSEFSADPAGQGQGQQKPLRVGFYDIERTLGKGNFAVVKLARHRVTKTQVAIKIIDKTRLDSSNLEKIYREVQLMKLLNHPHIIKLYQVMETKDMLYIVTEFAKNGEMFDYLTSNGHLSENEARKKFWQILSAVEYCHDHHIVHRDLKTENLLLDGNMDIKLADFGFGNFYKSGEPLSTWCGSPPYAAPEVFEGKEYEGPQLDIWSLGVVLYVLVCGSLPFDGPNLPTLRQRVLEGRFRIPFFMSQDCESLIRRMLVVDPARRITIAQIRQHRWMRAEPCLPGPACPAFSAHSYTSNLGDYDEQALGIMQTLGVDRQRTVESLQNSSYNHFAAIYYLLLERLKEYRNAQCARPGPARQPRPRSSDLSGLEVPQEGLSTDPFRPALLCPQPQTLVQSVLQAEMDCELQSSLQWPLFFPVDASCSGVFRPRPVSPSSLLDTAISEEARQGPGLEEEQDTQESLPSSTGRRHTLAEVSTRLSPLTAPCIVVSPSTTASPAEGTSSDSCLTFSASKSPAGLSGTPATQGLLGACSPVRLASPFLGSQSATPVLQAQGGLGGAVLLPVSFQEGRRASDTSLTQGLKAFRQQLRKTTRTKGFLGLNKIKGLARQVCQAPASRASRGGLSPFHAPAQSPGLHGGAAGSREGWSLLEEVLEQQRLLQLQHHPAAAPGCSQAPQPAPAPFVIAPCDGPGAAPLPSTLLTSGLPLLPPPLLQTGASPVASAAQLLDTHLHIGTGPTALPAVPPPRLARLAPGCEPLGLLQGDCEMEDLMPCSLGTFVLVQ
T2 sequence (Q9Y2K2 whole entry): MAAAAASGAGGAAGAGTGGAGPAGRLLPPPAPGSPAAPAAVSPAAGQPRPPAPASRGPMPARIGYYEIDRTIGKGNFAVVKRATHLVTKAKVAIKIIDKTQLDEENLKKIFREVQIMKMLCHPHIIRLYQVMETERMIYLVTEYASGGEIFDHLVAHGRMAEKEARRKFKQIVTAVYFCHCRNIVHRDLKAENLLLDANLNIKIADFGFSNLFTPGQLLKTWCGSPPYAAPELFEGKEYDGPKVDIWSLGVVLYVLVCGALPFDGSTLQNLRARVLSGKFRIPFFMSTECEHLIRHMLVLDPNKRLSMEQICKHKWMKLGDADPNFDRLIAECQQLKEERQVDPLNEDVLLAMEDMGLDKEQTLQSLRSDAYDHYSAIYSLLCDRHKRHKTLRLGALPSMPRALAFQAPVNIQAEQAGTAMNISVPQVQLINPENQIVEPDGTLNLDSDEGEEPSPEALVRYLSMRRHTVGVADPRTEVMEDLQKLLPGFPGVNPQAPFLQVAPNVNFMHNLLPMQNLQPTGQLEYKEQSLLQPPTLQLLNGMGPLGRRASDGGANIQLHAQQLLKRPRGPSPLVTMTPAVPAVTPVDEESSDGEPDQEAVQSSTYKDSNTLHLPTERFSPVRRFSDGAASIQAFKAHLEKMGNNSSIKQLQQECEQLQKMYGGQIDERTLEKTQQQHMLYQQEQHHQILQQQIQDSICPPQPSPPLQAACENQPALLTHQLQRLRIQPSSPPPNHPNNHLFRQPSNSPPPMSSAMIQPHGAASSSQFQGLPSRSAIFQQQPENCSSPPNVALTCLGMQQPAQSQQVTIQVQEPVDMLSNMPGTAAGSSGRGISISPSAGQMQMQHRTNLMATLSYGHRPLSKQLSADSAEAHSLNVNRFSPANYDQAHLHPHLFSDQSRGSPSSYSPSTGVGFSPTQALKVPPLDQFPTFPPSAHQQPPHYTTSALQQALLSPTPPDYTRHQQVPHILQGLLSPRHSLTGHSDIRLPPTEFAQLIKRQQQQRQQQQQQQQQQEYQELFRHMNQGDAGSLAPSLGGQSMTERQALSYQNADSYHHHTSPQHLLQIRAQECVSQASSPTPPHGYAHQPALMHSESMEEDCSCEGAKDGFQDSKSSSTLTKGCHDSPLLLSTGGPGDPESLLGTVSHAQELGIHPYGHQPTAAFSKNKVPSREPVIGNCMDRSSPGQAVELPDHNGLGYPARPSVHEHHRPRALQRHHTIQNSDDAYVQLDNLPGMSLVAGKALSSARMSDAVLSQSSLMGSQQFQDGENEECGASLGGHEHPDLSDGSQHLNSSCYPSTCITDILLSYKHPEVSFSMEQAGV
T1 sequence (Q9H0K1 whole entry): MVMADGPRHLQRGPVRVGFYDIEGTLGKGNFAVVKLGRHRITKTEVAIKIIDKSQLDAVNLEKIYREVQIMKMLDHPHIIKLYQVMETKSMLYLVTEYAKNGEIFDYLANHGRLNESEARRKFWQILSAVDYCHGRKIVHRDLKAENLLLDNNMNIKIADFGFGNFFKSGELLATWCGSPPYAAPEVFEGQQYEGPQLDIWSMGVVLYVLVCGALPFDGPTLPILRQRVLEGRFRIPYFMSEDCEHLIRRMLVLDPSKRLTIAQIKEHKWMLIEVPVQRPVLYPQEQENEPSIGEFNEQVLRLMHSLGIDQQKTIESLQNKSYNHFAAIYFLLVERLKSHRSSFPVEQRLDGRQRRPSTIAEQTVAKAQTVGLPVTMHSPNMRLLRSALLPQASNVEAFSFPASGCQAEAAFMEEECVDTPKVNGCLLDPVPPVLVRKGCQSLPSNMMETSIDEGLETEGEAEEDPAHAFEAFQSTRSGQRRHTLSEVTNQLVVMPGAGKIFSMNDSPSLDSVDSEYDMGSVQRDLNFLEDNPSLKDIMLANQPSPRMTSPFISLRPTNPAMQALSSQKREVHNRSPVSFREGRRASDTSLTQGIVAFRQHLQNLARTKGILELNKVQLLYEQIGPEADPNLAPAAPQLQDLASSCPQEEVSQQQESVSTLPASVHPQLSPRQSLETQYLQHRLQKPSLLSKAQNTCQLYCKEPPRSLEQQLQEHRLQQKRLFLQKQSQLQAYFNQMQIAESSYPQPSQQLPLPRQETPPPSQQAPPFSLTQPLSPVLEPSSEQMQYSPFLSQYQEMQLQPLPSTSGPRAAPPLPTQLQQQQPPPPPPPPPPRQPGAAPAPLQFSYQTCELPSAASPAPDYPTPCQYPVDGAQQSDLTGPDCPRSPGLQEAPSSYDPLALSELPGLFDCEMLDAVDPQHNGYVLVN

Broadly, the IC50 is the concentration at which inhibition is half-maximal. Lower therefore signals inhibition by little substance. In the case of `COc1cc(-c2cnc3cc(OCc4ccnn4C)ccn23)cnc1C(=O)NCC(F)(F)F` [compound 262, 3-methoxy-5-[7-[(2-methylpyrazol-3-yl)methoxy]imidazo[1,2-a]pyridin-3-yl]-N-(2,2,2-trifluoroethyl)pyridine-2-carboxamide], the results for the IC50 against SIK2, at SIK3 and on SIK1 were 100 to 500 nM, 10 to 100 nM and more than 500 nM, respectively.

Consider `COc1cc(-c2cnc3cc(OC[C@H]4COCCO4)ccn23)cnc1C(=O)NCC(F)(F)F` [compound 265, 5-[7-[[(2R)-1,4-dioxan-2-yl]methoxy]imidazo[1,2-a]pyridin-3-yl]-3-methoxy-N-(2,2,2-trifluoroethyl)pyridine-2-carboxamide], for which the IC50 at SIK2 was 100 to 500 nM; against SIK3, 100 to 500 nM; at SIK1, more than 500 nM.

With `COc1cc(-c2cnc3cc(OCC4CCCCN4CC#N)ccn23)cc(OC(F)F)c1C(=O)NC1CC1` (stereo not drawn) [compound 269, 4-[7-[[1-(cyanomethyl)-2-piperidyl]methoxy]imidazo [1,2-a]pyridin-3-yl]-N-cyclopropyl-2-(difluoromethoxy)-6-methoxy-benzamide], the IC50 lay in the range of 10 to 100 nM against SIK2, 0.01 to 10 nM on SIK3 and 10 to 100 nM against SIK1.

Regarding `COc1cc(-c2cnc3cc(OCC4CCCN4C4COC4)ccn23)cc(OC(F)F)c1C(=O)NC1CC1` (stereo not drawn) [compound 289, N-cyclopropyl-2-(difluoromethoxy)-6-methoxy-4-[7-[[1-(oxetan-3-yl)pyrrolidin-2-yl]methoxy]imidazo[1,2-a]pyridin-3-yl]benzamide], the IC50 on SIK2 was 10 to 100 nM; at SIK3, 0.01 to 10 nM; against SIK1 it was 10 to 100 nM.

With `COc1cc(-c2cnc3cc(OCCN4C(C)CCCC4C)ccn23)cc(OC(F)F)c1C(=O)NC1CC1` (stereo not drawn) [compound 294, N-cyclopropyl-2-(difluoromethoxy)-4-[7-[2-(2,6-dimethyl-1-piperidyl)ethoxy]imidazo [1,2-a]pyridin-3-yl]-6-methoxy-benzamide], the IC50 against SIK2 lay within 0.01 to 10 nM; against SIK3, 0.01 to 10 nM; against SIK1, 10 to 100 nM.

With `COc1cc(-c2cnc3cc(OCC4CCCN4C(C)C)ccn23)cc(OC(F)F)c1C(=O)NC1CC1` (stereo not drawn) [compound 295, N-cyclopropyl-2-(difluoromethoxy)-4-[7-[(1-isopropylpyrrolidin-2-yl)methoxy]imidazo[1,2-a]pyridin-3-yl]-6-methoxy-benzamide], the figures for the IC50 on SIK2, against SIK3 and at SIK1 were 0.01 to 10 nM, 0.01 to 10 nM and 100 to 500 nM, respectively.

Consider `COc1cc(-c2cnc3cc(OCCCN4CCOCC45COC5)ccn23)cc(OC(F)F)c1C(=O)NC1CC1` [compound 296, N-cyclopropyl-2-(difluoromethoxy)-4-[7-[3-(2,8-dioxa-5-azaspiro[3.5]nonan-5-yl)propoxy]imidazo[1,2-a]pyridin-3-yl]-6-methoxy-benzamide], for which the IC50 at SIK2 is 0.01 to 10 nM; against SIK3, 0.01 to 10 nM; at SIK1, 10 to 100 nM.

As for `COc1cc(-c2cnc3cc(OCCCN4CC5(CC(O)C5)C4)ccn23)cc(OC(F)F)c1C(=O)NC1CC1` [compound 297, N-cyclopropyl-2-(difluoromethoxy)-4-[7-[3-(6-hydroxy-2-azaspiro[3.3]heptan-2-yl)propoxy]imidazo[1,2-a]pyridin-3-yl]-6-methoxy-benzamide], the results for the IC50 against SIK2, against SIK3 and on SIK1 were 0.01 to 10 nM, 0.01 to 10 nM and 10 to 100 nM, respectively.

For `COc1cc(-c2cnc3cc(OCCCN4CCc5ncncc5C4)ccn23)cc(OC(F)F)c1C(=O)NC1CC1` [compound 304, N-cyclopropyl-2-(difluoromethoxy)-4-[7-[3-(7,8-dihydro-5H-pyrido[4,3-d]pyrimidin-6-yl)propoxy]imidazo[1,2-a]pyridin-3-yl]-6-methoxy-benzamide], the figures for the 50% inhibitory concentration (IC50) against SIK2, at SIK3 and at SIK1 were 0.01 to 10 nM, 0.01 to 10 nM and 10 to 100 nM, respectively.

In the case of `COc1cc(-c2cnc3cc(OCCOCCN4CCOCC4)ccn23)cc(OC(F)F)c1C(=O)NC1CC1` [compound 306, N-cyclopropyl-2-(difluoromethoxy)-6-methoxy-4-[7-[2-(2-morpholinoethoxy)ethoxy]imidazo[1,2-a]pyridin-3-yl]benzamide], the concentration for half-maximal inhibition (IC50) was in the range of 0.01 to 10 nM on SIK2, 0.01 to 10 nM against SIK3 and 10 to 100 nM against SIK1.

For `CCN(CC)CCOCCOc1ccn2c(-c3cc(OC)c(C(=O)NC4CC4)c(OC(F)F)c3)cnc2c1` [compound 307, N-cyclopropyl-4-[7-[2-[2-(diethylamino)ethoxy]ethoxy]imidazo[1,2-a]pyridin-3-yl]-2-(difluoromethoxy)-6-methoxy-benzamide], the values for the IC50 against SIK2, on SIK3 and on SIK1 were 0.01 to 10 nM, 10 to 100 nM and 10 to 100 nM, respectively.

Turning to `COc1cc(-c2cnc3cc(OCCN4CCN(CCO)CC4)ccn23)cc(OC(F)F)c1C(=O)NC1CC1` [compound 308, N-cyclopropyl-2-(difluoromethoxy)-4-[7-[2-[4-(2-hydroxyethyl)piperazin-1-yl]ethoxy]imidazo[1,2-a]pyridin-3-yl]-6-methoxy-benzamide], the IC50 against SIK2 is 0.01 to 10 nM; against SIK3, 0.01 to 10 nM; on SIK1, 10 to 100 nM.

In the case of `COc1cc(-c2cnc3cc(OCCCN4CCc5c(ncn5C)C4)ccn23)cc(OC(F)F)c1C(=O)NC1CC1` [compound 309, N-cyclopropyl-2-(difluoromethoxy)-6-methoxy-4-[7-[3-(1-methyl-6,7-dihydro-4H-imidazo[4,5-c]pyridin-5-yl)propoxy]imidazo[1,2-a]pyridin-3-yl]benzamide], the IC50 at SIK2 lay within 0.01 to 10 nM; at SIK3, 0.01 to 10 nM; against SIK1, 10 to 100 nM.

Turning to `COc1cc(-c2cnc3cc(OCCCN4CCn5cccc5C4)ccn23)cc(OC(F)F)c1C(=O)NC1CC1` [compound 310, N-cyclopropyl-2-(difluoromethoxy)-4-[7-[3-(3,4-dihydro-1H-pyrrolo[1,2-a]pyrazin-2-yl)propoxy]imidazo[1,2-a]pyridin-3-yl]-6-methoxy-benzamide], the IC50 at SIK2 lay within 0.01 to 10 nM; against SIK3 it was 0.01 to 10 nM; against SIK1, 10 to 100 nM.

Regarding `COc1cc(-c2cnc3cc(OCCCN4CCc5ncccc5C4)ccn23)cc(OC(F)F)c1C(=O)NC1CC1` [compound 311, N-cyclopropyl-2-(difluoromethoxy)-4-[7-[3-(7,8-dihydro-5H-1,6-naphthyridin-6-yl)propoxy]imidazo[1,2-a]pyridin-3-yl]-6-methoxy-benzamide], the IC50 on SIK2 is 0.01 to 10 nM; against SIK3, 0.01 to 10 nM; against SIK1, 10 to 100 nM.

On to `COc1cc(-c2cnc3cc(OCCCN4CCn5ccnc5C4)ccn23)cc(OC(F)F)c1C(=O)NC1CC1` [compound 312, N-cyclopropyl-2-(difluoromethoxy)-4-[7-[3-(6,8-dihydro-5H-imidazo[1,2-a]pyrazin-7-yl)propoxy]imidazo[1,2-a]pyridin-3-yl]-6-methoxy-benzamide], for which the IC50 at SIK2 fell in the range of 0.01 to 10 nM; at SIK3 it was 0.01 to 10 nM; against SIK1, 10 to 100 nM.

In the case of `COc1cc(-c2cnc3cc(OCCCN4CCn5ncnc5C4)ccn23)cc(OC(F)F)c1C(=O)NC1CC1` [compound 313, N-cyclopropyl-2-(difluoromethoxy)-4-[7-[3-(6,8-dihydro-5H-[1,2,4]triazolo[1,5-a]pyrazin-7-yl)propoxy]imidazo[1,2-a]pyridin-3-yl]-6-methoxy-benzamide], the values for the IC50 on SIK2, against SIK3 and against SIK1 were 0.01 to 10 nM, 0.01 to 10 nM and 10 to 100 nM, respectively.

Consider `COc1cc(-c2cnc3cc(OC[C@H]4CCN(C5COC5)C4)ccn23)cc(OC(F)F)c1C(=O)NC1CC1` [compound 317, N-cyclopropyl-2-(difluoromethoxy)-6-methoxy-4-[7-[[(3S)-1-(oxetan-3-yl)pyrrolidin-3-yl]methoxy]imidazo[1,2-a]pyridin-3-yl]benzamide], for which the results for the IC50 against SIK2, against SIK3 and against SIK1 were 0.01 to 10 nM, 0.01 to 10 nM and 10 to 100 nM, respectively.

For `COc1cc(-c2cnc3cc(OC[C@H]4CCCN(C5COC5)C4)ccn23)cc(OC(F)F)c1C(=O)NC1CC1` [compound 318, N-cyclopropyl-2-(difluoromethoxy)-6-methoxy-4-[7-[[(3S)-1-(oxetan-3-yl)-3-piperidyl]methoxy]imidazo[1,2-a]pyridin-3-yl]benzamide], the IC50 on SIK2, against SIK3 and at SIK1 was 0.01 to 10 nM in each case.

Consider `COc1cc(-c2cnc3cc(OCCCN4CCc5nc(C)sc5C4)ccn23)cc(OC(F)F)c1C(=O)NC1CC1` [compound 320, N-cyclopropyl-2-(difluoromethoxy)-6-methoxy-4-[7-[3-(2-methyl-6,7-dihydro-4H-thiazolo[5,4-c]pyridin-5-yl)propoxy]imidazo[1,2-a]pyridin-3-yl]benzamide], for which the IC50 was in the range of 0.01 to 10 nM on SIK2, 0.01 to 10 nM at SIK3 and 10 to 100 nM against SIK1.

Turning to `COc1cc(-c2cnc3cc(OCCCN4CCC(N(C)S(C)(=O)=O)CC4)ccn23)cc(OC(F)F)c1C(=O)NC1CC1` [compound 326, N-cyclopropyl-2-(difluoromethoxy)-6-methoxy-4-[7-[3-[4-[methyl(methylsulfonyl)amino]-1-piperidyl]propoxy]imidazo[1,2-a]pyridin-3-yl]benzamide], the figures for the IC50 against SIK2, against SIK3 and at SIK1 were 0.01 to 10 nM, 0.01 to 10 nM and 10 to 100 nM, respectively.

Turning to `COc1cc(-c2cnc3cc(OCCCN4CC5(CCS5(=O)=O)C4)ccn23)cc(OC(F)F)c1C(=O)NC1CC1` [compound 332, N-cyclopropyl-2-(difluoromethoxy)-4-[7-[3-(1,1-dioxo-1λ^6-thia-6-azaspiro[3.3]heptan-6-yl)propoxy]imidazo[1,2-a]pyridin-3-yl]-6-methoxy-benzamide], the values for the IC50 on SIK2, against SIK3 and against SIK1 were 0.01 to 10 nM, 0.01 to 10 nM and 10 to 100 nM, respectively.
